Data: the NIST ThermoML archive (doi:10.1021/je200068x)
± gives the expanded uncertainty stated by the source.

Details: for surface tension liquid-gas: Drop weight; for mass density: 101.33 kPa, Liquid

Structure (SMILES) | surface tension liquid-gas (293.15 K) [mN/m] | mass density (293.15 K) [kg/m3] | surface tension liquid-gas (298.15 K) [mN/m] | mass density (298.15 K) [kg/m3] | surface tension liquid-gas (303.15 K) [mN/m] | mass density (303.15 K) [kg/m3] | surface tension liquid-gas (308.15 K) [mN/m] | mass density (308.15 K) [kg/m3] | surface tension liquid-gas (313.15 K) [mN/m] | mass density (313.15 K) [kg/m3] | surface tension liquid-gas (318.15 K) [mN/m] | mass density (318.15 K) [kg/m3] | surface tension liquid-gas (323.15 K) [mN/m] | mass density (323.15 K) [kg/m3] | surface tension liquid-gas (328.15 K) [mN/m] | mass density (328.15 K) [kg/m3] | surface tension liquid-gas (333.15 K) [mN/m] | mass density (333.15 K) [kg/m3] | surface tension liquid-gas (338.15 K) [mN/m] | mass density (338.15 K) [kg/m3] | other results
C[n+]1ccn(CCCN)c1.F[B-](F)(F)F [1-(3-aminopropyl)-3-methyl-1H-imidazolium tetrafluoroborate] | 47.2 ± 0.5 | 1358.01 ± 1.8 | 47.1 ± 0.5 | 1354.6 ± 1.7 | 46.4 ± 0.5 | 1349.29 ± 1.7 | 46.2 ± 0.5 | 1345.68 ± 1.7 | 46.1 ± 0.5 | 1343.18 ± 1.7 | 45.4 ± 0.5 | 1336.97 ± 1.7 | 45.2 ± 0.5 | 1333.57 ± 1.7 | 44.8 ± 0.5 | 1328.96 ± 1.6 | 44.6 ± 0.5 | 1325.35 ± 1.6 | 44.1 ± 0.5 | 1321.05 ± 1.6 | surface tension liquid-gas (343.15 K): 43.8 ± 0.5 mN/m; mass density (343.15 K): 1317.25 ± 1.6 kg/m3; surface tension liquid-gas (348.15 K): 43.4 ± 0.5 mN/m; mass density (348.15 K): 1313.04 ± 1.6 kg/m3; surface tension liquid-gas (353.15 K): 43.1 ± 0.5 mN/m; mass density (353.15 K): 1309.44 ± 1.6 kg/m3
Cn1cc[n+](CCN)c1.F[B-](F)(F)F [3-(2-aminoethyl)-1-methyl-1H-imidazolium tetrafluoroborate] | 53.8 ± 0.5 | 1427.12 ± 2 | 53.5 ± 0.5 | 1422.31 ± 2 | 53.2 ± 0.5 | 1418.96 ± 2 | 52.4 ± 0.5 | 1413.23 ± 2 | 52 ± 0.5 | 1409.18 ± 1.9 | 51.5 ± 0.5 | 1404.69 ± 1.9 | 51.3 ± 0.5 | 1401.78 ± 1.9 | 50.8 ± 0.5 | 1395.42 ± 1.9 | 50.3 ± 0.5 | 1391.77 ± 1.9 | 50.2 ± 0.5 | 1388.54 ± 1.9 | surface tension liquid-gas (343.15 K): 49.8 ± 0.5 mN/m; mass density (343.15 K): 1384.79 ± 1.9 kg/m3; surface tension liquid-gas (348.15 K): 49.4 ± 0.5 mN/m; mass density (348.15 K): 1380.94 ± 1.9 kg/m3; surface tension liquid-gas (353.15 K): 48.8 ± 0.5 mN/m; mass density (353.15 K): 1375.11 ± 1.8 kg/m3
